For 36 compounds, EC50 results are on record in patent publication US9409884B2 (Rigel Pharmaceuticals, Inc., priority 2012, dated 2016).

This experiment addresses AMPK. In words: AMPK activation, enzyme-linked immunosorbent assay. The class given is biochemical. Conditions: Table 12, compounds of Table 5. A digest of the protocol:
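AMPK activation by test compounds was measured by enzyme-linked immunosorbent assay.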
On to `N#Cc1ccc(CN2CCC(Oc3ccc(C(=O)NC4CCN(Cc5ccc(Cl)cc5)CC4)cc3F)CC2)cc1` [Compound 5-70, N-(1-(4-chlorobenzyl)piperidin-4-yl)-4-(1-(4-cyanobenzyl)piperidin-4-yloxy)-3-fluorobenzamide], for which the EC50 was less than 1000 nM. The compound `O=C(NC1CCN(Cc2ccc(Cl)cc2)CC1)c1ccc(OC2CCN(Cc3ccc(F)c(F)c3)CC2)c(F)c1` [Compound 5-71, N-(1-(4-chlorobenzyl)piperidin-4-yl)-4-(1-(3,4-difluorobenzyl)piperidin-4-yloxy)-3-fluorobenzamide] came in with an EC50 of less than 1000 nM. The compound `O=C(NC1CCN(Cc2ccc(Cl)cc2)CC1)c1ccc(OC2CCN(Cc3ccc(Cl)cc3)CC2)c(F)c1` [Compound 5-72, N-(1-(4-chlorobenzyl)piperidin-4-yl)-4-(1-(4-chlorobenzyl)piperidin-4-yloxy)-3-fluorobenzamide] came in with an EC50 of less than 1000 nM.

`Cc1ccc(CN2CCC(Oc3ccc(C(=O)NC4CCN(Cc5ccc(Cl)cc5)CC4)cc3F)CC2)cc1` [Compound 5-73, N-(1-(4-chlorobenzyl)piperidin-4-yl)-3-fluoro-4-(1-(4-methylbenzyl)piperidin-4-yloxy)benzamide] returned an EC50 of less than 1000 nM. Compound `O=C(NC1CCN(Cc2ccccc2)CC1)c1ccc(OC2CCN(Cc3ccc(F)c(F)c3)CC2)c(Cl)c1` [Compound 5-74, N-(1-benzylpiperidin-4-yl)-3-chloro-4-(1-(3,4-difluorobenzyl)piperidin-4-yloxy)benzamide] registered an EC50 of less than 1000 nM. Turning to `O=C(NC1CCN(Cc2ccccc2)CC1)c1cc(Cl)c(OC2CCN(Cc3ccc(Cl)cc3)CC2)c(Cl)c1` [Compound 5-75, N-(1-benzylpiperidin-4-yl)-3,5-dichloro-4-(1-(4-chlorobenzyl)piperidin-4-yloxy)benzamide], the EC50 was less than 1000 nM. As for `O=C(NC1CCN(Cc2ccccc2)CC1)c1cc(Cl)c(OC2CCN(Cc3ccc(F)c(F)c3)CC2)c(Cl)c1` [Compound 5-76, N-(1-benzylpiperidin-4-yl)-3,5-dichloro-4-(1-(3,4-difluorobenzyl)piperidin-4-yloxy)benzamide], the EC50 is less than 1000 nM. Compound `N#Cc1ccc(CN2CCC(Oc3c(Cl)cc(C(=O)NC4CCN(Cc5ccccc5)CC4)cc3Cl)CC2)cc1` [Compound 5-77, N-(1-benzylpiperidin-4-yl)-3,5-dichloro-4-(1-(4-cyanobenzyl)piperidin-4-yloxy)benzamide] came in with an EC50 of less than 1000 nM. Regarding `CC(C)(C)OC(=O)N1CCC(NC(=O)c2ccc(OC3CCN(Cc4ccc(C#N)cc4)CC3)cc2)CC1` [Compound 5-78, tert-butyl 4-(4-(1-(4-cyanobenzyl)piperidin-4-yloxy)benzamido)piperidine-1-carboxylate], the EC50 is less than 1000 nM. Turning to `N#Cc1ccc(CN2CCC(Oc3ccc(C(=O)NC4CCNCC4)cc3)CC2)cc1` [Compound 5-79, 4-(1-(4-cyanobenzyl)piperidin-4-yloxy)-N-(piperidin-4-yl)benzamide], the concentration for a half-maximal effect (EC50) is greater than 100000 nM. As for `O=C(NC1CCN(Cc2ccc(Cl)cc2)CC1)c1ccc(OC2CCN(Cc3ccc(Cl)c(Cl)c3)CC2)c(F)c1` [Compound 5-80, N-(1-(4-chlorobenzyl)piperidin-4-yl)-4-(1-(3,4-dichlorobenzyl)piperidin-4-yloxy)-3-fluorobenzamide], the figure is less than 1000 nM; as for `N#Cc1ccc(N2CCC(Oc3ccc(C(=O)NC4CCN(Cc5ccc(Cl)cc5)CC4)cc3F)CC2)cc1` [Compound 5-81, N-(1-(4-chlorobenzyl)piperidin-4-yl)-4-(1-(4-cyanophenyl)piperidin-4-yloxy)-3-fluorobenzamide], less than 1000 nM; as for `O=C(NC1CCN(Cc2ccccc2)CC1)c1ccc(OC2CCN(Cc3ccc(Cl)c(Cl)c3)CC2)c(F)c1` [Compound 5-82, N-(1-benzylpiperidin-4-yl)-4-(1-(3,4-dichlorobenzyl)piperidin-4-yloxy)-3-fluorobenzamide], less than 1000 nM. `N#Cc1ccc(CN2CCC(Oc3ccc(C(=O)NC4CCN(Cc5ccncc5)CC4)cc3)CC2)cc1` [Compound 5-83, 4-(1-(4-cyanobenzyl)piperidin-4-yloxy)-N-(1-(pyridin-4-ylmethyl)piperidin-4-yl)benzamide] yielded an EC50 of less than 1000 nM. Consider `O=C(NC1CCN(Cc2ccccc2)CC1)c1ccc(OC2CCN(Cc3ccc(Cl)c(Cl)c3)CC2)c(Cl)c1` [Compound 5-84, N-(1-benzylpiperidin-4-yl)-3-chloro-4-(1-(3,4-dichlorobenzyl)piperidin-4-yloxy)benzamide], for which the EC50 was less than 1000 nM. `N#Cc1ccc(CN2CCC(Oc3ccc(C(=O)NC4CCN(Cc5ccccn5)CC4)cc3)CC2)cc1` [Compound 5-85, 4-(1-(4-cyanobenzyl)piperidin-4-yloxy)-N-(1-(pyridin-2-ylmethyl)piperidin-4-yl)benzamide] showed an EC50 of less than 1000 nM. To `O=C(NC1CCN(Cc2ccccc2)CC1)c1cccc(OC2CCN(c3ccccn3)CC2)c1` [Compound 5-86, N-(1-benzylpiperidin-4-yl)-3-(1-(pyridin-2-yl)piperidin-4-yloxy)benzamide] belongs less than 1000 nM; to `O=C(NC1CCN(Cc2ccncc2)CC1)c1cccc(OC2CCN(c3ccc(C(F)(F)F)cc3)CC2)c1` [Compound 5-87, N-(1-(pyridin-4-ylmethyl)piperidin-4-yl)-3-(1-(4-(trifluoromethyl)phenyl)piperidin-4-yloxy)benzamide], less than 1000 nM; to `N#Cc1ccc(N2CCC(Oc3cccc(C(=O)NC4CCN(Cc5ccncc5)CC4)c3)CC2)cc1` [Compound 5-88, N-(1-(pyridin-4-ylmethyl)piperidin-4-yl)-3-(1-(4-cyanophenyl)piperidin-4-yloxy)benzamide], 1000 to 10000 nM. To `N#Cc1cccc(CN2CCC(Oc3cccc(C(=O)NC4CCN(Cc5ccccc5)CC4)c3)CC2)c1` [Compound 5-89, N-(1-benzylpiperidin-4-yl)-3-(1-(3-cyanobenzyl)piperidin-4-yloxy)benzamide] belongs 1000 to 10000 nM. Take `CC(C)(C)OC(=O)N1CCC(Oc2ccc(C(=O)NC3CCN(Cc4ccccc4)CC3)cc2Cl)CC1` [Compound 5-90, tert-butyl 4-(4-(1-benzylpiperidin-4-ylcarbamoyl)-2-chlorophenoxy) piperidine-1-carboxylate]: the EC50 lay in the range of 1000 to 10000 nM. In turn, `CC(C)(C)C(=O)N1CCC(Oc2ccc(C(=O)NC3CCN(Cc4ccccc4)CC3)cc2Cl)CC1` [Compound 5-91, N-(1-benzylpiperidin-4-yl)-3-chloro-4-(1-pivaloylpiperidin-4-yloxy)benzamide] displayed an EC50 of less than 1000 nM. In turn, `CC(C)(C)OC(=O)N1CCC(Oc2ccc(C(=O)NC3CCN(Cc4ccccc4)CC3)cc2F)CC1` [Compound 5-92, tert-butyl 4-(4-(1-benzylpiperidin-4-ylcarbamoyl)-2-fluorophenoxy) piperidine-1-carboxylate] gave an EC50 of 1000 to 10000 nM.

Compound `O=C(NC1CCN(Cc2ccccc2)CC1)c1ccc(OC2CCNCC2)c(Cl)c1` [Compound 5-93, N-(1-benzylpiperidin-4-yl)-3-chloro-4-(piperidin-4-yloxy)benzamide] displayed an EC50 greater than 100000 nM.

In the case of `COc1cc(C(=O)NCCCNC(=O)OC(C)(C)C)ccc1OC1CCN(Cc2ccc(C(F)(F)F)cc2)CC1` [Compound 5-94, tert-butyl 3-(3-methoxy-4-(1-(4-(trifluoromethyl)benzyl)piperidin-4-yloxy)benzamido) propylcarbamate], the EC50 is less than 1000 nM. `CC(C)(C)OC(=O)NCCCNC(=O)c1ccc(OC2CCN(Cc3ccc(C(F)(F)F)cc3)CC2)cc1` [Compound 5-95, tert-butyl 3-(4-(1-(4-(trifluoromethyl)benzyl)piperidin-4-yloxy)benzamido) propylcarbamate] came in with an EC50 of less than 1000 nM. The compound `COc1ccc(CN2CCC(Oc3ccc(C(=O)N4CCN(C(=O)OC(C)(C)C)CC4)cc3)CC2)cc1` [Compound 5-96, tert-butyl 4-(4-(1-(4-methoxybenzyl)piperidin-4-yloxy)benzoyl)piperazine-1-carboxylate] registered an EC50 of 1000 to 10000 nM. Compound `COc1ccc(CN2CCC(Oc3ccc(C(=O)NCCCNC(=O)OC(C)(C)C)cc3Cl)CC2)cc1` [Compound 5-97, tert-butyl 3-(3-chloro-4-(1-(4-methoxybenzyl)piperidin-4-yloxy)benzamido) propylcarbamate] registered an EC50 of 1000 to 10000 nM.

In the case of `COc1cc(C(=O)NCCCN2CCOCC2)ccc1OC1CCN(Cc2ccc(Cl)cc2)CC1` [Compound 5-98, 4-(1-(4-chlorobenzyl)piperidin-4-yloxy)-4-methoxy-N-(3-morpholinopropyl)benzamide], the EC50 was 1000 to 10000 nM. As for `CC(C)(C)OC(=O)N1CCN(C(=O)c2ccc(OC3CCN(Cc4ccccc4)CC3)cc2)CC1` [Compound 5-99, tert-butyl 4-(4-(1-benzylpiperidin-4-yloxy)benzoyl)piperazine-1-carboxylate], the figure is 1000 to 10000 nM; as for `O=C(NCCCN1CCOCC1)c1ccc(OC2CCN(Cc3ccc(Cl)cc3)CC2)cc1` [Compound 5-100, 4-(1-(4-chlorobenzyl)piperidin-4-yloxy)-N-(3-morpholinopropyl)benzamide], 1000 to 10000 nM; as for `COc1ccc(CN2CCC(Oc3ccc(C(=O)NCCCN4CCOCC4)cc3Cl)CC2)cc1` [Compound 5-101, 3-chloro-4-(1-(4-methoxybenzyl)piperidin-4-yloxy)-N-(3-morpholinopropyl)benzamide], 10000 to 20000 nM.

`CC(C)(C)OC(=O)NCCCNC(=O)c1ccc(OC2CCN(Cc3ccccc3)CC2)c(Cl)c1` [Compound 5-102, tert-butyl 3-(4-(1-benzylpiperidin-4-yloxy)-3-chlorobenzamido) propylcarbamate] showed an EC50 of 10000 to 20000 nM. Consider `O=C(c1ccc(OC2CCN(Cc3ccccc3)CC2)cc1)N1CCN(c2ccccc2)CC1` [Compound 5-103, (4-(1-benzylpiperidin-4-yloxy)phenyl)(4-phenylpiperazin-l-yl)methanone], for which the EC50 is 20000 to 50000 nM. Regarding `Cc1ccc(CN2CCC(Oc3ccc(C(=O)NCCCN4CCOCC4)cc3)CC2)cc1` [Compound 5-104, 4-(1-(4-methylbenzyl)piperidin-4-yloxy)-N-(3-morpholinopropyl)benzamide], the EC50 was in the range of 10000 to 20000 nM. With `O=C(c1ccc(OC2CCN(Cc3ccccc3)CC2)cc1)N1CCN(Cc2ccccn2)CC1` [Compound 5-105, (4-(1-benzylpiperidin-4-yloxy)phenyl)(4-(pyridin-2-ylmethyl)piperazin-1-yl)methanone], the EC50 lay in the range of 10000 to 20000 nM.

In general, EC50 refers to the concentration needed to bring the measured effect to its halfway point.
